Here are results for one compound from paper PMC8253140 (Drug Delivery, 2017).

Assay [1] has as its system A549T cells. In kind it is cell-based. Conditions: 5 μM, 48 h, triplicate. The protocol:
(§1) After that, the cells were harvested by trypsinization, washed in PBS twice, and fixed in 70% cold ethanol for 24 h at 4 °C. The fixed cells were washed in cold PBS and then resuspended in 0.5 mL of PBS containing 50 μg/mL PI, 0.1% Triton-X-100, 0.1% sodium citrate, and 100 μg/mL RNase. After incubation at 4 °C in the dark for 30 min, the fluorescence-activated cells were sorted. The cellular DNA content was analyzed by flow cytometry (Becton Dickinson, Franklin Lakes, NJ). Each analysis contained at least 10 000 cells. […] The percentages of cells in different cell cycle phases were then recorded. Each experiment was performed in triplicate, and the results were expressed as the mean ± SD.

Assay [2] relates to A549 cells. As to the kind of experiment: Cytotoxicity study, MTT colorimetric assay. To be noted: A549 cells, MTT, 24 h. Here is the method: The inhibitory activities of the drug samples on cell growth were evaluated using a 3-(4,5-dimethylthiazol-2-yl)-2,5-diphenyltetrazolium bromide (MTT) colorimetric assay. A549 and A549T cells were harvested by trypsinization and resuspended at a concentration of 2 × 10^4 cells/mL in fresh culture medium. Then, the cells were seeded at a density of 5000 cells per well in 96-well plates. […] The concentration of the drugs ranged from 0.1 μM to 100 μM. After 24 h of incubation, the drug-containing media were abandoned, and 20 μL of MTT (5 mg/mL) solution was added to each well. The plate was incubated for an additional 4 h, and then, […] of DMSO was added to each well to dissolve any formed purple formazan crystals. The plates were vigorously shaken before measuring the relative color intensity. The absorbance at 570 nm of each well was measured with a plate reader.

The subject of another assay is A549 tumor. It is filed as in vivo, BALB/c nude mice. Conditions: A549 tumor-bearing nude mice, 1000 μM, 100 μL, peritumoral injection three times over 8 d. An excerpt:
(§2) The protocol to evaluate the in vivo antitumor efficacy of the PTX-CPP conjugates was approved by the ethics committee of Fudan University. Four-week-old female BALB/c nude mice were purchased and housed in the Animal Care Facilities in the School of Pharmacy, Fudan University. BALB/c mice bearing subcutaneous tumors were used as an animal model for the evaluation of the anticancer activities of PTX-LMWP and PTX-TAT. The subcutaneous tumor xenograft model was established by inoculating 2 × 10^6 A549 or A549T cells (in 100 μL of cell culture medium) into the subcutaneous tissue of the armpit of the right anterior limb (Gu et al., [2014]). Tumor size was measured with Vernier calipers for the largest (length) and smallest (width) superficial visible diameters of the protruding tumor mass through the skin. Tumor volumes were calculated according to the following formula: volume = 0.52 × W^2×L, where W and L represent the width and the length, respectively (Lee et al., [2011]). The drugs were administered 2 weeks after tumor implantation, when the size of the tumors reached approximately 100–150 mm^3. […] Each experimental group contained six mice. The mice were treated (100 μL volume) three times over 8 d via peritumoral injection. Tumor volumes were measured at 2-d intervals. At the end of the experiment, the mice were sacrificed, and necropsies were performed. The tumors were removed, weighed and fixed with formalin.

Another assay deals with A549T tumor. It is filed as in vivo, BALB/c nude mice. Conditions: A549T tumor-bearing nude mice, 1000 μM, 100 μL, peritumoral injection three times over 8 d.
From the text: as §2

In assay [3] the test system is A549 cells. Nature of the assay: Cell apoptosis detection, annexin V-FITC/PI flow cytometry. It is filed as cell-based. Conditions: 10 μM, 48 h, triplicate. Here is the method:
Cell apoptosis was determined by an annexin V-FITC/PI assay. The externalization of phosphatidylserine, a result of early stage apoptosis, was detected by FITC-annexin V protein staining, and the membrane damage due to late-stage apoptosis was detected by the binding of PI to nuclear DNA. Briefly, 2 × 10^5 A549 and A549T cells were plated in 6-well plates and incubated for 24 h. After exposure to the different drugs at a concentration of 10 μM for 48 h, the cells were harvested by trypsinization, washed in PBS twice and incubated in the dark for 10 min at room temperature in 500 μL of binding buffer containing annexin V-FITC (1 μg/mL) and PI (1 μg/mL). The cells were immediately analyzed by flow cytometry (Becton Dickinson, Franklin Lakes, NJ). The fluorescence intensity of annexin V-FITC was measured at an excitation/emission wavelength of 488/530 nm and that of PI was measured at an excitation/emission wavelength of 488/617 nm. Approximately 10 000 cells were analyzed in each of the samples. Each assay was repeated in triplicate.

The subject of assay [4] is A549 cells. Nature of the assay: Cell-cycle analysis, PI flow cytometry. It is filed as cell-based. Conditions: 5 μM, 48 h, triplicate. Here is the method: as §1
Assay [5] has as its system A549T cells. Nature of the assay: Cytotoxicity study, MTT colorimetric assay. It is filed as cell-based. Conditions: A549T cells, MTT, 24 h, concentrations below 1000 nM. In general terms: Tetrazolium assays rely on reduction of a dye to a coloured formazan, in cell work by metabolically active cells.
Protocol: The inhibitory activities of the drug samples on cell growth were evaluated using a 3-(4,5-dimethylthiazol-2-yl)-2,5-diphenyltetrazolium bromide (MTT) colorimetric assay. A549 and A549T cells were harvested by trypsinization and resuspended at a concentration of 2 × 10^4 cells/mL in fresh culture medium. Then, the cells were seeded at a density of 5000 cells per well in 96-well plates. […] The concentration of the drugs ranged from 0.1 μM to 100 μM. After 24 h of incubation, the drug-containing media were abandoned, and 20 μL of MTT (5 mg/mL) solution was added to each well. The plate was incubated for an additional 4 h, and then, 200 mL of DMSO was added to each well to dissolve any formed purple formazan crystals. The plates were vigorously shaken before measuring the relative color intensity. The absorbance at 570 nm of each well was measured with a plate reader.
Setting [6] is: tumors dissected and weighed after 24 or 30 d, six mice per group.

A word on the cell viability: it is a per cent measure of how many cells are alive, often set against a control. High values mean better survival, low ones a greater loss of cells.

The structures appear in SMILES notation.

As to `CC(=O)O[C@H]1C(=O)[C@@]2(C)[C@H]([C@H](OC(=O)c3ccccc3)[C@]3(O)C[C@H](OC(=O)[C@H](O)[C@@H](NC(=O)c4ccccc4)c4ccccc4)C(C)=C1C3(C)C)[C@]1(OC(C)=O)CO[C@@H]1C[C@@H]2O` [PTX, Paclitaxel, reference compound], the “effect on cell-cycle distribution” value in the assay on A549T cells [1] was “a large number of A549T cells were induced into tetraploids”; with A549 cells [4], “substantially increased the percentages of cells in G2/M phase cell-cycle arrest”. Further, the cell viability result in the assay with A549 cells [2] (concentration below 1 nM) is recorded as “higher than 80%”; with A549 cells [2] (concentrations from 100 nM to 100 000 nM), 40%. Also, the “tumor growth (tumor volume) compared with the control” value in the assay on A549 tumor is “significant antitumor effect”; with A549T tumor, “no significant difference in the tumor volumes between the control and PTX groups”. The tumor inhibition rate in the assay with A549 tumor (setting [6]) worked out at 31.06%; with A549T tumor (setting [6]), 11.0%. In addition, the “percentage of late apoptotic cells (PI+/annexin V+)” value in the assay with A549 cells [3] came to 13.03%. Besides, the “effect on cell viability” value in the assay with A549T cells [5] was “no effect on cell viability”.
